The results in this text go back to patent publication US7250413B2, “C-25 carbamate rifamycin derivatives with activity against drug-resistant microbes” (Cumbre Pharmaceuticals Inc., priority 2004, dated 2007).

For orientation: MIC means the lowest concentration that inhibits growth of the organism.

Experiment in all cases: MIC, microbroth dilution
Holding throughout (format): cell-based
Background: Broth dilution looks for growth in wells or tubes with falling amounts of substance.

Assay [1] relates to Enterococcus faecalis ATCC29212. As for the experimental part:
(§1) Representative compounds were assayed for antimicrobial activity as follows: Minimum Inhibitory Concentrations (“MICs”) were determined by the microbroth dilution method as per NCCLS guidelines (National Committee for Clinical Laboratory Standards, 2000), except that all growth incubations were conducted at 37° C. Bacterial cultures were tested in the following bacteriological media: S. aureus, S. epidermidis, and E. coli in Cation-Adjusted Mueller-Hinton Broth, S. pneumoniae in THY Broth supplemented with 1 mg/mL catalase under 5% CO2 atmosphere, S. pyogenes in THY Broth, E. faecalis in BHI Broth, H. influenzae in BHI Broth supplemented with 0.75 μL of 1 mg/mL NAD and 150 μL of 1 mg/ml hematin per 5 mL, and M smegmatis in Middlebrook Broth plus ADC Enrichment.

Assay [2] deals with Staphylococcus aureus ATCC29213. As to the method: as §1
Assay [3] deals with Mycobacterium smegmatis ATCC700084. The note with it: Mycolicibacterium smegmatis, ATCC700084; rifS; Middlebrook Broth plus ADC Enrichment, 37° C.; read-out: MIC. As to the method:
as §1

[4] abbreviates: rifS, BHI Broth, 37° C., read-out: MIC.
The mark [5] stands for this setting: rifS, Cation-Adjusted Mueller-Hinton Broth, 37° C., read-out: MIC.

The structures appear in SMILES notation. ≈ marks a conversion by molar mass, not a printed value. Like-named read-outs stand apart in the source and are kept apart here.

Regarding `CO[C@H]1/C=C/O[C@@]2(C)Oc3c(C)c(O)c4c(c3C2=O)C(=O)C(N2CCOCC2)=C(NC(=O)/C(C)=C\C=C\[C@H](C)[C@H](O)[C@@H](C)[C@@H](O)[C@@H](C)[C@H](OC(=O)N2CCN(c3ccc(C(=O)Nc5ccc6[nH]c(C)cc6c5)cc3C(F)(F)F)CC2)[C@@H]1C)C4=O` [Example 51, 25-O-Desacetyl-(carbonyl-N-(2-methyl-1H-indol-5-yl)-4-piperazin-1-yl-3-trifluoromethyl-benzamide) 3-morpholino rifamycin S], the MIC in assay [1] (setting [4]) lay in the range of 0.25 to 62 µg/mL (≈ 0.214 to 53.1 µM); in assay [2] (setting [5]), 0.002 to 1.95 µg/mL (≈ 0.00171 to 1.67 µM); in assay [3], 0.063 to 31 µg/mL.
Consider `CO[C@H]1/C=C/O[C@@]2(C)Oc3c(C)c(O)c4c(c3C2=O)C(=O)C(N2CCOCC2)=C(NC(=O)/C(C)=C\C=C\[C@H](C)[C@H](O)[C@@H](C)[C@@H](O)[C@@H](C)[C@H](OC(=O)NCc2cnc3ccccc3c2)[C@@H]1C)C4=O` [Example 41, 25-O-Desacetyl-(carbonyl-N-quinolin-3-yl-methylamino) 3-morpholino rifamycin S], for which the MIC in assay [1] (setting [4]) is 0.25 to 62 µg/mL (≈ 0.271 to 67.2 µM); in assay [2] (setting [5]), 0.002 to 1.95 µg/mL (≈ 0.00217 to 2.11 µM); in assay [3], 0.063 to 31 µg/mL.
Regarding `COc1cncc(NC(=O)c2ccc(N3CCN(C(=O)O[C@H]4[C@H](C)[C@H](O)[C@H](C)[C@@H](O)[C@@H](C)/C=C/C=C(/C)C(=O)NC5=C(N6CCOCC6)C(=O)c6c(c(O)c(C)c7c6C(=O)[C@@](C)(O/C=C/[C@H](OC)[C@H]4C)O7)C5=O)CC3)c(C(F)(F)F)c2)c1` [Example 53, 25-O-Desacetyl-(carbonyl-N-(5-methoxy-pyridin-3-yl)-4-piperazin-1-yl-3-trifluoromethyl-benzamide) 3-morpholino rifamycin S], the MIC in assay [1] (setting [4]) lay in the range of 0.25 to 62 µg/mL (≈ 0.218 to 54.1 µM); in assay [2] (setting [5]), 0.002 to 1.95 µg/mL (≈ 0.00175 to 1.7 µM); in assay [3], 0.063 to 31 µg/mL.
As for `COc1c(N2CCN(C(=O)C3CN(C(=O)O[C@H]4[C@H](C)[C@H](O)[C@H](C)[C@@H](O)[C@@H](C)/C=C/C=C(/C)C(=O)NC5=C(N6CCOCC6)C(=O)c6c(c(O)c(C)c7c6C(=O)[C@@](C)(O/C=C/[C@H](OC)[C@H]4C)O7)C5=O)C3)CC2)c(F)cc2c(=O)c(C(=O)O)cn(C3CC3)c12` [Example 66], the MIC in assay [1] (setting [4]) lay in the range of 0.25 to 62 µg/mL (≈ 0.207 to 51.3 µM); in assay [2] (setting [5]) it was 0.002 to 1.95 µg/mL (≈ 0.00165 to 1.61 µM); in assay [3], 0.063 to 31 µg/mL.
Taken in the same sequence, the figures for `CO[C@H]1/C=C/O[C@@]2(C)Oc3c(C)c(O)c4c(c3C2=O)C(=O)C(N2CCOCC2)=C(NC(=O)/C(C)=C\C=C\[C@H](C)[C@H](O)[C@@H](C)[C@@H](O)[C@@H](C)[C@H](OC(=O)N2CCC(N3CCCCC3)CC2)[C@@H]1C)C4=O` [Example 35, 25-O-Desacetyl-(carbonyl-[1,4′]bipiperidinyl) 3-morpholino rifamycin S] were 0.25 to 62 µg/mL (≈ 0.268 to 66.4 µM), 0.002 to 1.95 µg/mL (≈ 0.00214 to 2.09 µM) and 0.063 to 31 µg/mL.
Taken in the same sequence, the figures for `COc1c(N2CCN(C3CCN(C(=O)O[C@H]4[C@H](C)[C@H](O)[C@H](C)[C@@H](O)[C@@H](C)/C=C/C=C(/C)C(=O)NC5=C(N6CCOCC6)C(=O)c6c(c(O)c(C)c7c6C(=O)[C@@](C)(O/C=C/[C@H](OC)[C@H]4C)O7)C5=O)CC3)CC2)c(F)cc2c(=O)c(C(=O)O)cn(C3CC3)c12` [Example 60] were 0.25 to 62 µg/mL (≈ 0.207 to 51.3 µM), 0.002 to 1.95 µg/mL (≈ 0.00165 to 1.61 µM) and 0.063 to 31 µg/mL.
For `COc1c(N2CCN(C(=O)C3CN(C(=O)O[C@H]4[C@H](C)[C@H](O)[C@H](C)[C@@H](O)[C@@H](C)/C=C/C=C(/C)C(=O)NC5=C(N6CCOCC6)C(=O)c6c(c(O)c(C)c7c6C(=O)[C@@](C)(O/C=C/[C@H](OC)[C@H]4C)O7)C5=O)C3)C(C)C2)c(F)cc2c(=O)c(C(=O)O)cn(C3CC3)c12` (some centres unmarked) [Example 65] the same measures were 0.25 to 62 µg/mL (≈ 0.204 to 50.7 µM), 0.002 to 1.95 µg/mL (≈ 0.00163 to 1.59 µM) and 0.063 to 31 µg/mL.
Consider `CCN(CC)C(=O)O[C@H]1[C@H](C)[C@H](O)[C@H](C)[C@@H](O)[C@@H](C)/C=C/C=C(/C)C(=O)NC2=C(N3CCOCC3)C(=O)c3c(c(O)c(C)c4c3C(=O)[C@@](C)(O/C=C/[C@H](OC)[C@H]1C)O4)C2=O` [Example 10, 25-O-Desacetyl-(1-carbonyl-2-diethylamine) 3-morpholino rifamycin S], for which the MIC in assay [1] (setting [4]) is 0.25 to 62 µg/mL (≈ 0.298 to 74 µM); in assay [2] (setting [5]), 0.002 to 1.95 µg/mL (≈ 0.00239 to 2.33 µM); in assay [3] it was 0.063 to 31 µg/mL.
Consider `CO[C@H]1/C=C/O[C@@]2(C)Oc3c(C)c(O)c4c(c3C2=O)C(=O)C(N2CCOCC2)=C(NC(=O)/C(C)=C\C=C\[C@H](C)[C@H](O)[C@@H](C)[C@@H](O)[C@@H](C)[C@H](OC(=O)NCCc2ccc(Cl)cc2)[C@@H]1C)C4=O` [Example 38, 25-O-Desacetyl-(carbonyl-2-(4-Chloro-phenyl)-ethylamine) 3-morpholino rifamycin S], for which the MIC in assay [1] (setting [4]) lay within 0.25 to 62 µg/mL (≈ 0.272 to 67.4 µM); in assay [2] (setting [5]) it was 0.002 to 1.95 µg/mL (≈ 0.00217 to 2.12 µM); in assay [3], 0.063 to 31 µg/mL.
Regarding `CO[C@H]1/C=C/O[C@@]2(C)Oc3c(C)c(O)c4c(c3C2=O)C(=O)C(N2CCOCC2)=C(NC(=O)/C(C)=C\C=C\[C@H](C)[C@H](O)[C@@H](C)[C@@H](O)[C@@H](C)[C@H](OC(=O)NCCc2ccccn2)[C@@H]1C)C4=O` [Example 18, 25-O-Desacetyl-(1-carbonyl-(2-pyridin-2-yl-ethylamine)) 3-morpholino rifamycin S], the MIC in assay [1] (setting [4]) lay in the range of 0.25 to 62 µg/mL (≈ 0.282 to 69.9 µM); in assay [2] (setting [5]), 0.002 to 1.95 µg/mL (≈ 0.00225 to 2.2 µM); in assay [3] it was 0.063 to 31 µg/mL.
With `CO[C@H]1/C=C/O[C@@]2(C)Oc3c(C)c(O)c4c(c3C2=O)C(=O)C(N2CCOCC2)=C(NC(=O)/C(C)=C\C=C\[C@H](C)[C@H](O)[C@@H](C)[C@@H](O)[C@@H](C)[C@H](OC(=O)NCc2ccc(N(C)C)cc2)[C@@H]1C)C4=O` [Example 36, 25-O-Desacetyl-(carbonyl-(4-aminomethyl-phenyl)-dimethyl-amine) 3-morpholino rifamycin S], the figures for the MIC in assay [1] (setting [4]), in assay [2] (setting [5]) and in assay [3] were 0.25 to 62 µg/mL (≈ 0.273 to 67.8 µM), 0.002 to 1.95 µg/mL (≈ 0.00219 to 2.13 µM) and 0.063 to 31 µg/mL, respectively.
For the compound `CO[C@H]1/C=C/O[C@@]2(C)Oc3c(C)c(O)c4c(c3C2=O)C(=O)C(N2CCOCC2)=C(NC(=O)/C(C)=C\C=C\[C@H](C)[C@H](O)[C@@H](C)[C@@H](O)[C@@H](C)[C@H](OC(=O)N2CCC(N3CCN(c5cc6c(cc5F)c(=O)c(C(=O)O)cn6C5CC5)CC3)CC2)[C@@H]1C)C4=O` [Example 57], the MIC in assay [1] (setting [4]) is 0.25 to 62 µg/mL (≈ 0.212 to 52.6 µM); in assay [2] (setting [5]), 0.002 to 1.95 µg/mL (≈ 0.0017 to 1.65 µM); in assay [3], 0.063 to 31 µg/mL.
Taken in the same sequence, the figures for `COc1ccc(CNC(=O)O[C@H]2[C@H](C)[C@H](O)[C@H](C)[C@@H](O)[C@@H](C)/C=C/C=C(/C)C(=O)NC3=C(N4CCOCC4)C(=O)c4c(c(O)c(C)c5c4C(=O)[C@@](C)(O/C=C/[C@H](OC)[C@H]2C)O5)C3=O)cc1` [Example 26, 25-O-Desacetyl-(carbonyl-4-methoxybenzylamino) 3-morpholino rifamycin S] were 0.25 to 62 µg/mL (≈ 0.277 to 68.7 µM), 0.002 to 1.95 µg/mL (≈ 0.00222 to 2.16 µM) and 0.063 to 31 µg/mL.
For `CO[C@H]1/C=C/O[C@@]2(C)Oc3c(C)c(O)c4c(c3/C2=N/O)C(=O)C(N2CCOCC2)=C(NC(=O)/C(C)=C\C=C\[C@H](C)[C@H](O)[C@@H](C)[C@@H](O)[C@@H](C)[C@H](OC(=O)NC2CCN(c3c(F)cc5c(=O)c(C(=O)O)cn(C6CC6)c5c3Cl)C2)[C@@H]1C)C4=O` (some centres unmarked) [Example 68] the same measures were 0.25 to 62 µg/mL (≈ 0.218 to 54.1 µM), 0.002 to 1.95 µg/mL (≈ 0.00175 to 1.7 µM) and 0.063 to 31 µg/mL.
Regarding `CO[C@H]1/C=C/O[C@@]2(C)Oc3c(C)c(O)c4c(c3C2=O)C(=O)C(N2CCOCC2)=C(NC(=O)/C(C)=C\C=C\[C@H](C)[C@H](O)[C@@H](C)[C@@H](O)[C@@H](C)[C@H](OC(=O)N2CCN(C)CC2)[C@@H]1C)C4=O` [Example 6, 25-O-Desacetyl-(1-carbonyl-4-methyl-piperazine) 3-morpholino rifamycin S], the MIC in assay [1] (setting [4]) was in the range of 0.25 to 62 µg/mL (≈ 0.289 to 71.7 µM); in assay [2] (setting [5]), 0.002 to 1.95 µg/mL (≈ 0.00231 to 2.25 µM); in assay [3] it was 0.063 to 31 µg/mL.
For the compound `CO[C@H]1/C=C/O[C@@]2(C)Oc3c(C)c(O)c4c(c3C2=O)C(=O)C(N2CCOCC2)=C(NC(=O)/C(C)=C\C=C\[C@H](C)[C@H](O)[C@@H](C)[C@@H](O)[C@@H](C)[C@H](OC(=O)NCc2cccc3ccccc23)[C@@H]1C)C4=O` [Example 23, 25-O-Desacetyl-(carbonyl-naphthalen-1-ylmethyl-amino) 3-morpholino rifamycin S], the MIC in assay [1] fell in the range of 0.25 to 62 µg/mL (≈ 0.271 to 67.2 µM); in assay [2], 0.002 to 1.95 µg/mL (≈ 0.00217 to 2.11 µM).
For `CO[C@H]1/C=C/O[C@@]2(C)Oc3c(C)c(O)c4c(c3C2=O)C(=O)C(N2CCOCC2)=C(NC(=O)/C(C)=C\C=C\[C@H](C)[C@@H]2OC(C)(C)O[C@@H]([C@@H](C)[C@H](OC(=O)N3CCC(=O)C3)[C@@H]1C)[C@@H]2C)C4=O` [Example 61] the same measures were 0.25 to 62 µg/mL (≈ 0.281 to 69.7 µM) and 0.002 to 1.95 µg/mL (≈ 0.00225 to 2.19 µM).
Taken in the same sequence, the figures for `COc1cncc(NC(=O)c2ccc(N3CCNCC3)c(C(F)(F)F)c2)c1` [Example 52, N-(5-Methoxy-pyridin-3-yl)-4-piperazin-1-yl-3-trifluoromethyl-benzamide] were 0.25 to 62 µg/mL (≈ 0.657 to 163 µM) and 0.002 to 1.95 µg/mL (≈ 0.00526 to 5.13 µM).
Taken in the same sequence, the figures for `CO[C@H]1/C=C/O[C@@]2(C)Oc3c(C)c(O)c4c(c3C2=O)C(=O)C(N2CCOCC2)=C(NC(=O)/C(C)=C\C=C\[C@H](C)[C@@H]2OC(C)(C)O[C@@H]([C@@H](C)[C@H](OC(=O)N3CCC(=O)CC3)[C@@H]1C)[C@@H]2C)C4=O` [Example 54, 25-O-Desacetyl-(carbonyl-N-(4-piperidone)) cyclic-21,23-(1-methylethylideneacetal) 3-morpholino rifamycin S] were 0.25 to 62 µg/mL (≈ 0.277 to 68.6 µM) and 0.002 to 1.95 µg/mL (≈ 0.00221 to 2.16 µM).
